Target: H1047R PIK3CA enzyme (Homo sapiens, UniProt P42336, H1047R)
Assay: ADP-Glo Biochemical PIK3CA Kinase Assay

Sequence of H1047R PIK3CA enzyme (P42336 whole entry H1047R): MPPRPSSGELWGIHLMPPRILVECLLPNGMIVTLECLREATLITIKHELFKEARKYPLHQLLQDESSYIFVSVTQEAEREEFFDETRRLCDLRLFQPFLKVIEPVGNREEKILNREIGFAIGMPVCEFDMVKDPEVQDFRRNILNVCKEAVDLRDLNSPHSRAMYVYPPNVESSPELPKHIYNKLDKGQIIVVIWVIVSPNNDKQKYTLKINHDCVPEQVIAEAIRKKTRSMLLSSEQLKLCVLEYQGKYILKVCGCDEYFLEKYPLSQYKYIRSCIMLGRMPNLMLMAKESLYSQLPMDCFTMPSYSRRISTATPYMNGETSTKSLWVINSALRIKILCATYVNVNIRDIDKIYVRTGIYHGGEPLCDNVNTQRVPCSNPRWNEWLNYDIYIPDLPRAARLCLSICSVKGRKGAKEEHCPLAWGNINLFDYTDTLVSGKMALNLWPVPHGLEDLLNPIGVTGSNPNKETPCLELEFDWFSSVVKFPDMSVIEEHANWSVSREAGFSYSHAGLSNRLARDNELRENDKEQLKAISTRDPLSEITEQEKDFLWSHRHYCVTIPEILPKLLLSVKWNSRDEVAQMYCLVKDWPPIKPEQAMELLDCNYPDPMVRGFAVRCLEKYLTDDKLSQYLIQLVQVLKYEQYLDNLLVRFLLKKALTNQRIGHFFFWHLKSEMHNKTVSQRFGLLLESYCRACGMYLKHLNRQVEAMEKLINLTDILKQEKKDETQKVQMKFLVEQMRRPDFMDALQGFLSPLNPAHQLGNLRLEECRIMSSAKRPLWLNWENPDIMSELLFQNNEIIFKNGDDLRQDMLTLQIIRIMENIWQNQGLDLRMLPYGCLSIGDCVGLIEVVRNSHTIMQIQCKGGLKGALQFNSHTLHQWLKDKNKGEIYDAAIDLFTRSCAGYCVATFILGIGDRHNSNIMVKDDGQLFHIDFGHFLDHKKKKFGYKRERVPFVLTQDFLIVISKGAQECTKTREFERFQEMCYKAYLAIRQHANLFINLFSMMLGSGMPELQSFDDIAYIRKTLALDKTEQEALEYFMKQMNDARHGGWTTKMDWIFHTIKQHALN
Sequence of H1047R PIK3CA enzyme (P27986 whole entry partner): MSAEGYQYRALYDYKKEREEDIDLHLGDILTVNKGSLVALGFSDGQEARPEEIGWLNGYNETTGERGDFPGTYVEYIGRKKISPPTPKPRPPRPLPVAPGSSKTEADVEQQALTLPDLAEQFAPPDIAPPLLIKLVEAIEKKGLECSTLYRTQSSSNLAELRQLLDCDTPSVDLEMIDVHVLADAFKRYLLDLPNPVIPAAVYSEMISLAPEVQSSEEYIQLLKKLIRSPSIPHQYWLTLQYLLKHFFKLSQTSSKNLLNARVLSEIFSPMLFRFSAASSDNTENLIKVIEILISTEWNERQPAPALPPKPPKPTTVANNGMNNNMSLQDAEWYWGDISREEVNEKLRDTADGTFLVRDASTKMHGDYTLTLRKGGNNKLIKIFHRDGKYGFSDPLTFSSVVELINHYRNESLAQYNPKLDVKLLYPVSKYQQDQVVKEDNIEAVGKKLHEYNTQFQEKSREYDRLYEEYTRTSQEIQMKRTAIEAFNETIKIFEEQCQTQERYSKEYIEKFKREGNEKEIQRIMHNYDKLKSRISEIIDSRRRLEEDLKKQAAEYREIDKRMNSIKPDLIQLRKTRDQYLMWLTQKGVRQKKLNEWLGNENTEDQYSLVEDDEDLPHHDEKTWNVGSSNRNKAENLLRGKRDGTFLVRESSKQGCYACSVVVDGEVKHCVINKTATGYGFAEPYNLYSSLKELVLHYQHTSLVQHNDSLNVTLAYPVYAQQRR

SMILES | IC50 [nM]
Cc1ccccc1C1NC(=O)c2c(N)ncc(NC(=O)c3cc(F)cc(C(F)(F)F)c3)c21 (centres unmarked) [Compound I-262, N-(4-Amino-3-oxo-1-(o-tolyl)-2,3-dihydro-1H-pyrrolo[3,4-c]pyridin-7-yl)-3-fluoro-5-(trifluoromethyl)benzamide] | 100 to 500
CC(C)(O)c1cc(NC(=O)c2cc(F)cc(C(F)(F)F)c2)c2c(c1)C(=O)N[C@@H]2c1cc(F)ccc1C(F)F [Compound I-263] | 10000 to 100000
Cc1ccccc1C1NC(=O)c2c(C(N)=O)ncc(NC(=O)c3cc(F)cc(C(F)(F)F)c3)c21 (centres unmarked) [Compound I-265] | 100 to 500
Cc1ccccc1C1NC(=O)c2cc(C(C)C)cc(NC(=O)c3cc(F)cc(C(F)(F)F)c3)c21 (centres unmarked) [Compound I-266, 3-Fluoro-N-[3-(2-methylphenyl)-6-(isopropyl)-1-oxo-2,3-dihydro-1H-isoindol-4-yl]-5-(trifluoromethyl)benzamide] | 100 to 500
CC(C)(O)c1cc(NC(=O)c2cc(Cl)n3ccccc23)c2c(c1)C(=O)NC2c1cc(F)ccc1C(F)F (centres unmarked) [Compound I-267] | ≤ 100
Cc1ccccc1C1NC(=O)c2cc(CC(C)C)cc(NC(=O)c3cc(F)cc(C(F)(F)F)c3)c21 (centres unmarked) [Compound I-268] | ≤ 100
Nc1cc(NC(=O)c2cc(F)cc(C(F)(F)F)c2)cc2c1C(c1cc(F)ccc1C(F)F)NC2=O (centres unmarked) [Compound I-269] | 10000 to 100000
O=C(Nc1cc(C(O)C(F)(F)F)cc2c1C(c1cc(F)ccc1Cl)NC2=O)c1cc(F)cc(C(F)(F)F)c1 (centres unmarked) [Compound I-270, N-(3-(2-chloro-5-fluorophenyl)-1-oxo-6-(2,2,2-trifluoro-1-hydroxyethyl)isoindolin-4-yl)-3-fluoro-5-(trifluoromethyl)benzamide] | ≤ 100
CC(C)(O)c1cc(NC(=O)c2cc(F)cc(C(F)(F)F)c2)c2c(n1)C(=O)N[C@@H]2c1cc(F)ccc1Cl [Compound I-271] | 1000 to 10000
CC(C)(O)c1cc(NC(=O)c2cc(F)cc(C(F)(F)F)c2)c2c(n1)C(=O)N[C@H]2c1cc(F)ccc1Cl [Compound I-272] | 100 to 500
Nc1cc(NC(=O)c2cc(F)cc(C(F)(F)F)c2)c2c(n1)C(=O)NC2c1cc(F)ccc1Cl (centres unmarked) [Compound I-273] | 100 to 500
O=C(Nc1cnc(N2CC(F)(F)C2)c2c1C(Cl)(c1cc(F)ccc1Cl)NC2=O)c1cc(F)cc(C(F)(F)F)c1 (centres unmarked) [Compound I-274, N-(1-Chloro-1-(2-chloro-5-fluorophenyl)-4-(3,3-difluoroazetidin-1-yl)-3-oxo-2,3-dihydro-1H-pyrrolo[3,4-c]pyridin-7-yl)-3-fluoro-5-(trifluoromethyl)benzamide] | 1000 to 10000
O=C(Nc1cc(NCC(F)F)cc2c1C(c1cc(F)ccc1Cl)NC2=O)c1cc(F)cc(C(F)(F)F)c1 (centres unmarked) [Compound I-275] | ≤ 100
Cc1ccccc1C1NC(=O)c2c(C(=O)NCC(F)F)ccc(NC(=O)c3nsc4ccccc34)c21 (centres unmarked) [Compound I-276] | ≤ 100
Cc1ccccc1C1NC(=O)c2cccc(NC(=O)c3nc(C)n4ccc(Cl)cc34)c21 (centres unmarked) [Compound I-277, 7-Chloro-N-(1-oxo-3-(o-tolyl)isoindolin-4-yl)-3-methylimidazo[1,5-a]pyridine-1-carboxamide] | 10000 to 100000
Cc1ccccc1C1NC(=O)c2c(C(=O)O)ccc(NC(=O)c3nsc4ccccc34)c21 (centres unmarked) [Compound I-278] | 500 to 1000
Cc1ccccc1C1NC(=O)c2c(Br)ccc(NC(=O)c3cc(F)cc(C(F)(F)F)c3)c21 (centres unmarked) [Compound I-279] | 100 to 500
CC(O)c1cc(NC(=O)c2cc(F)cc(C(F)(F)F)c2)c2c(n1)C(=O)NC2c1cc(F)ccc1Cl (centres unmarked) [Compound I-280] | 100 to 500
Cc1ccc(F)cc1C1NC(=O)c2cccc(NC(=O)c3cc(F)cc(C(F)(F)F)c3)c21 (centres unmarked) [Compound I-281] | 100 to 500
Cc1ccccc1C1NC(=O)c2nccc(NC(=O)N3CCc4cccnc43)c21 (centres unmarked) [Compound I-282] | 1000 to 10000
